Experimental data taken from patent US20240108006A1, “PESTICIDALLY ACTIVE HETEROAROMATIC COMPOUNDS” (SYNGENTA CROP PROTECTION AG, priority 2021, published 2024).

Tests used:
Type in all cases: in vivo
Chilo suppressalis = assay: Example B1: Chilo suppressalis (striped rice stemborer), artificial diet, L2 larvae; conditions: 144 h, application rate of 200 ppm, 6 days after infestation, read-out: control in at least one of the three categories (mortality, anti-feedant effect, or growth inhibition)
Summary of the method: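 L2 larvae (6-8 per well) were placed on dried artificial diet that had been dosed with aqueous dilutions of 10,000 ppm DMSO stock solutions. After 6 days, control was credited if mortality, antifeedant effect or growth inhibition was higher than in untreated samples.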

Diabrotica balteata = assay: Example B2: Diabrotica balteata (corn root worm), maize sprouts, L2 larvae; conditions: 96 h, application rate of 200 ppm, 4 days after infestation, read-out: control in at least one of the two categories (mortality or growth inhibition)
Summary of the method: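 Maize sprouts on agar sprayed with aqueous test solutions made from 10,000 ppm DMSO stocks, dried, then infested with 6 to 10 L2 larvae per well. Mortality and growth inhibition assessed versus untreated samples 4 days after infestation; application rate 200 ppm.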

Euschistus heros = assay: Example B3: Euschistus heros (neotropical brown stink bug), soybean leaves, N2 nymphs; conditions: 120 h, application rate of 200 ppm, 5 days after infestation, read-out: control in at least one of the two categories (mortality or growth inhibition)
Myzus persicae [1] = assay: Example B5: Myzus persicae (green peach aphid), feeding/contact activity; conditions: 144 h, application rate of 200 ppm, 6 days after infestation
Method: Example B5: Myzus persicae (Green Peach Aphid):Feeding/Contact Activity
Sunflower leaf discs were placed onto agar in a 24-well microtiter plate and sprayed with aqueous test solutions prepared from 10,000 ppm DMSO stock solutions. After drying, the leaf discs were infested with an aphid population of mixed ages. The samples were assessed for mortality 6 days after infestation.

Myzus persicae [2] = assay: Example B7: Myzus persicae (green peach aphid), intrinsic activity, sucrose solution 24-well; conditions: 120 h, application rate of 12.5 ppm, 5 days after infestation, read-out: control (mortality)
Summary of the method: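 Compounds from 10,000 ppm DMSO stocks were mixed into sucrose solution in wells at a rate of 12.5 ppm. Aphid-infested pea seedlings were placed on a Parafilm membrane over the solution, so aphids fed through it. Mortality was scored 5 days after infestation.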

Plutella xylostella = assay: Example B8: Plutella xylostella (diamond back moth), artificial diet 24-well, eggs; conditions: 192 h, application rate of 200 ppm, 8 days after infestation, read-out: effect in at least one of the two categories (mortality or growth inhibition)
Summary of the method: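 Plutella eggs placed onto dried, compound-treated artificial diet, the aqueous test solutions diluted from 10,000 ppm DMSO stocks. Eight days post-infestation, larvae rated for mortality and growth inhibition relative to untreated controls.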

Spodoptera littoralis = assay: Example B9: Spodoptera littoralis (Egyptian cotton leaf worm), cotton leaf discs, L1 larvae; conditions: foliar, 72 h, application rate of 200 ppm, 3 days after infestation, read-out: control in at least one of the three categories (mortality, anti-feedant effect, or growth inhibition)
Summary of the method: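 Five L1 larvae placed on sprayed, dried cotton leaf discs; spray solutions aqueous, from 10,000 ppm DMSO stocks. Control given when mortality, anti-feedant effect or growth inhibition exceeds untreated samples at 3 days.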

Tetranychus urticae = assay: Example B13: Tetranychus urticae (two-spotted spider mite), feeding/contact activity; conditions: 192 h, read-out: mortality on mixed population (mobile stages)
Method: Example B13: Tetranychus urticae (Two-Spotted Spider Mite):Feeding/Contact Activity
Bean leaf discs on agar in 24-well microtiter plates were sprayed with aqueous test solutions prepared from 10,000 ppm DMSO stock solutions. After drying the leaf discs were infested with a mite population of mixed ages. The samples were assessed for mortality on mixed population (mobile stages) 8 days after infestation.

C[C@H](NC(=O)Nc1cnc(C(F)(F)F)cc1Cl)c1ncnn1-c1cnccn1 [Example P277, 1-[4-chloro-6-(trifluoromethyl)-3-pyridyl]-3-[(1S)-1-(2-pyrazin-2-yl-1,2,4-triazol-3-yl)ethyl]urea]
≥ 80%: percent control (mortality, anti-feedant effect or growth inhibition) at 200 ppm (Chilo suppressalis) | percent control (mortality or growth inhibition) at 200 ppm (Diabrotica balteata) | percent control (mortality or growth inhibition) at 200 ppm (Euschistus heros) | mortality at 200 ppm (Myzus persicae [1]) | mortality at 12.5 ppm (Myzus persicae [2]) | percent effect (mortality or growth inhibition) at 200 ppm (Plutella xylostella) | percent control (mortality, anti-feedant effect or growth inhibition) at 200 ppm (Spodoptera littoralis) | mortality at 200 ppm (Tetranychus urticae)
